According to patent US8106052B2, “Luminescence-based methods and probes for measuring cytochrome P450 activity” (Promega Corporation, priority 2002, dated 2012):
Read-outs that look alike come from different tables or passages of the source.

Assays:
[1] = test system: pooled human liver microsomes; test: Pooled human liver microsomes in two-step luminescent CYP450 reaction; conditions: for Effect on activity against Luc BE: substrate Luc BE, ketoconazole 100 micromolar; for CYP450 activity detected with the substrate compared to Sf9 cell membranes: pooled human liver microsomes, 60 minutes at 37° C.
Description: FIG. 8. Pooled human liver microsomes in two-step luminescent CYP450 reactions. D-luciferin derivatives were incubated in a CYP450 reaction mix with pooled human liver microsomes for 60 minutes at 37° C. before combining with a luciferase reaction mixture. For controls liver microsomes were replaced with control (no CYP450) Sf9 cell membranes. Luminescence was read within 12 minutes of combining the reactions on a Berthold Orion luminometer. […] Values labeled “nt” are vehicle controls.
(§1) In this Example, a procedure for a two-step CYP450/luciferase assay is provided. Luciferin derivatives were evaluated as P450 substrates and luciferase pro-substrates using this procedure. 20 microliter CYP450 reactions were prepared at pH 7.4 in an amount of KPO4 buffer that is optimal for a given CYP450 isoform (100 mM for CYP1A1, CYP1A2, CYP2B6, CYP2D6 and CYP2E1; 50 mM for CYP2C8 and CYP2C19; 25 mM for 2C9 and for pooled human liver microsomes; 200 mM for CYP3A4). For CYP2A6 100 mM Tris at pH 7.5 was substituted for KPO4. […] Reactions were initiated by addition of 0.4 pmoles recombinant human CYP450 co-expressed with CYP450 reductase in Sf9 cell microsomal membranes or 4 microgram pooled human liver microsomes and incubation at 37° C. After an initial incubation period at 37° C. 20 microliter CYP450 reactions were mixed with an 80 microliter luciferase reaction mix. […] Assays were also performed using 50 microliter CYP450 and luciferase reaction volumes (e.g., FIG. 3, panel B, table 3). Light output was measured immediately in a Turner Reporter, Turner 20/20 or Berthold Orion luminometer. Because the calibration of instruments from different manufacturers varies the quantitation of light output is instrument-specific and direct comparisons between instruments cannot be made.

[2] = biological target: T1, CYP1A2 (Homo sapiens, UniProt P05177); test: Two-step CYP450/luciferase reaction, luciferin derivative evaluation as substrate; conditions: CYP450 incubation 60 minutes at 37° C., then luciferase
T1 sequence (P05177 1-516): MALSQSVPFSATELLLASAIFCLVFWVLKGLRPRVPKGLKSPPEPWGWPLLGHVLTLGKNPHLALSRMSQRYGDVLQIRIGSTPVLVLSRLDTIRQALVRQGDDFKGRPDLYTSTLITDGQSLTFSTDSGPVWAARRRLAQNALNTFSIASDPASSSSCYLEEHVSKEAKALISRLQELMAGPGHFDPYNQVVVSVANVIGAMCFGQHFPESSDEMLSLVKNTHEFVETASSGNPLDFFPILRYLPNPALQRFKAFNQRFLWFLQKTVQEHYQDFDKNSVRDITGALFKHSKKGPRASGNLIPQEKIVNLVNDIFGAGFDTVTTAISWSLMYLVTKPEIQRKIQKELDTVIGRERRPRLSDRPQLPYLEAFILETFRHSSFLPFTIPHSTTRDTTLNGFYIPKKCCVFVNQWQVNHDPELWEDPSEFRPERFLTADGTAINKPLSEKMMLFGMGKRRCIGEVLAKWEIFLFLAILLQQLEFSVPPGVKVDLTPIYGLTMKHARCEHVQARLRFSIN
Description: as §1
(§2) O-dealkylation and hydroxylation are common CYP450 catalyzed xenobiotic transformations (9). […] The CYP450 activities tested are contained in microsome fractions from insect cells that over-express a single recombinant human CYP450 isoform in combination with NADPH CYP450 reductase. It was reasoned that if CYP450s dealkylated or hydroxylated the luciferin derivatives at the 6′ position, authentic luciferin would be generated that could be detected enzymatically in a light generating firefly luciferase reaction as described by the equation in FIG. 1.
(§3) The panel included CYP1A1, CYP1A2, CYP2A6, CYP2B6, CYP2C8, CYP2C9, CYP2C19, CYP2D6, CYP2E1 and CYP3A4. After an initial incubation with CYP450, luciferase and its requisite cofactors were added and light output was monitored (FIGS. 3 and 9).

[3] = biological target: T2, CYP2C9 (Homo sapiens, UniProt P11712); test: as above; conditions: for Light output over controls with CYP2C9: CYP450 incubation 60 minutes at 37° C., then luciferase
Description: as §1, §2, §3
Target sequence in this assay (P11712 whole entry): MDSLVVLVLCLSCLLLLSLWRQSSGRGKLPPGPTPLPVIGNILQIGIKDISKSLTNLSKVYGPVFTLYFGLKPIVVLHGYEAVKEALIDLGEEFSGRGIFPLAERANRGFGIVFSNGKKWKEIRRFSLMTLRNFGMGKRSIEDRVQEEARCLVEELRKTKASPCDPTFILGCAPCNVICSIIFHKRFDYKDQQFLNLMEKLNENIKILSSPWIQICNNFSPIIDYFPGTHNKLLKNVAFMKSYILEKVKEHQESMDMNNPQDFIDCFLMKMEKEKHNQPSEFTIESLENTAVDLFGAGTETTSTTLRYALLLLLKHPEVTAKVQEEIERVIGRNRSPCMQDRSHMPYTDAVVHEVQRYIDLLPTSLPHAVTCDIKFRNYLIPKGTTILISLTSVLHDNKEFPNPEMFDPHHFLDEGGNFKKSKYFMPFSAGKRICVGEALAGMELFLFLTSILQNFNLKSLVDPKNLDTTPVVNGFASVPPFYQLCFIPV

[4] = biological target: T2, CYP2C9; test: One-step CYP450/luciferase reaction; type: biochemical; parameters: purchased GenTest (Woburn, Mass.); host or cells: Sf9 insect cells; conditions: 37° C.
Description: (§4) Luciferin derivatives were evaluated as P450 substrates and luciferase pro-substrates using this procedure.
Target sequence in this assay (P11712 whole entry): as above

[5] = biological target: T2, CYP2C9; test: CYP450-catalyzed conversion of luciferin derivatives to luciferin (HPLC); type: biochemical; conditions: 100 micromolar, 37 C, HPLC with fluorescence detection
Target sequence in this assay (P11712 whole entry, species assumed): as the sequence (P11712 whole entry) above

[6] = biological target: T3, CYP3A4 (Homo sapiens, UniProt P08684)
T3 sequence (P08684 whole entry): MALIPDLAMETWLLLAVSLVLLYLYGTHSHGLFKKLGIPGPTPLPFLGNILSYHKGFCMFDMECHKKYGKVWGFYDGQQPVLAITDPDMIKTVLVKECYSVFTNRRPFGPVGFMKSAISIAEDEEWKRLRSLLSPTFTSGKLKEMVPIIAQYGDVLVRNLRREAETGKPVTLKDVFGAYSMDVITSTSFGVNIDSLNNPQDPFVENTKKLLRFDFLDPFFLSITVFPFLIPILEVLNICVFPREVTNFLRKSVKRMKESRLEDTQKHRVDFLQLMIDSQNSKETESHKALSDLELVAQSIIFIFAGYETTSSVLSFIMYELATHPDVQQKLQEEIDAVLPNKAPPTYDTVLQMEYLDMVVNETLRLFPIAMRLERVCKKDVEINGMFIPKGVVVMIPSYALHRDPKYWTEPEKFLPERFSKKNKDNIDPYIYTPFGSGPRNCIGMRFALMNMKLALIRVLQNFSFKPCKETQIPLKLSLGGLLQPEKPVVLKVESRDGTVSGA
Description: as §1, §2, §3

[7] = biological target: T4, CYP2C8 (Homo sapiens, UniProt P10632); conditions: CYP450 incubation 60 minutes at 37° C., then luciferase
T4 sequence (P10632 1-490): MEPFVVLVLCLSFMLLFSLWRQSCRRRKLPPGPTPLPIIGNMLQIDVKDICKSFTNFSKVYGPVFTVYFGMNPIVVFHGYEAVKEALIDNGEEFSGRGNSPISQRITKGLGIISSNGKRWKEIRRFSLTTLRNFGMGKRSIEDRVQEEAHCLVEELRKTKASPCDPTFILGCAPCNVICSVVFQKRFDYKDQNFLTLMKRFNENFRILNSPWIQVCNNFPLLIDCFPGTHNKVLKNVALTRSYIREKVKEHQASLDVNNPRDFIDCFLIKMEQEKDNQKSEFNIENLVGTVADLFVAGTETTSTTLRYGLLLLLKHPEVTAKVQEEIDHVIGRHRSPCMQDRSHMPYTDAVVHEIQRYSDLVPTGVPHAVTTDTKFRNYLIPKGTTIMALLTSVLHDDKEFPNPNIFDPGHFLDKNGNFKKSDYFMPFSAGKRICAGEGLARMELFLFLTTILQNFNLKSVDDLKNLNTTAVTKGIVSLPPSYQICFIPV
Description: as §1, §2, §3

[8] = biological target: T3, CYP3A4; test: One-step CYP450/luciferase reaction; conditions: 37° C.
Description: as §4

[9] = biological target: T5, CYP1A1 (Homo sapiens, UniProt P04798); conditions: CYP450 incubation 60 minutes at 37° C., then luciferase
T5 sequence (P04798 1-512): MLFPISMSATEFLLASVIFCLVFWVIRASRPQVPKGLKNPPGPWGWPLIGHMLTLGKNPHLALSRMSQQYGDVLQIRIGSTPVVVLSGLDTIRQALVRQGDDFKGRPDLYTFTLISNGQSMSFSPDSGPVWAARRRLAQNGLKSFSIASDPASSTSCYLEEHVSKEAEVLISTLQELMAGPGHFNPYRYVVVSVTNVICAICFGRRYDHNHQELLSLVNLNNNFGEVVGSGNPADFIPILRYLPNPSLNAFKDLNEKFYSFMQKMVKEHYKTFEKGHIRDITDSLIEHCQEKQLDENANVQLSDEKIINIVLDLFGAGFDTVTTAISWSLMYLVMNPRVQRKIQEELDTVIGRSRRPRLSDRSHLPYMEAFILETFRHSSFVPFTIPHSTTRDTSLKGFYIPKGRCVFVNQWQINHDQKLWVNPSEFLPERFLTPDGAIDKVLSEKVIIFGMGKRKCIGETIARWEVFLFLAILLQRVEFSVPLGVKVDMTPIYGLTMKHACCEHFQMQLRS
Description: as §1, §2, §3

[10] = biological target: T5, CYP1A1; test: CYP450-catalyzed conversion of luciferin derivatives to luciferin (HPLC); conditions: 100 micromolar, 37 C, HPLC with fluorescence detection
Description: At various time intervals, the reactions were stopped by the addition of Tergitol to 0.1% (v/v) and flash freezing in liquid nitrogen. 95 microliter aliquots of each reaction mixture were subjected to fractionation by HPLC. […] Separation was achieved on a 5 micron Adsorbosphere HS C18 column (Alltech Associates) with a solvent gradient of 0.05M KH2PO4/pH 6 (solvent A) and 80:20 acetonitrile/water (solvent B). The gradient conditions used were 15% B to 95% B over 10 min.

[11] = alpha-naphthoflavone 10 micromolar
[12] = two-step, 37° C., up to 60 minutes

O=c1cc(-c2ccccc2)oc2c1ccc1ccccc12 [Alpha-Naphpthoflavone, alpha-naphthoflavone]
Effect on activity against Luc BE [1, 11]: slight stimulation | Inhibition of microsomal light output ([1]; substrates H-Luc, Luc ME, Luc EE, Luc BE, alpha-naphthoflavone 10 micromolar): lack of inhibition

O=C(O)C1CSC(c2nc3ccccc3s2)=N1 (stereo not drawn) [H-Luc, 6′-Deoxyluciferin]
Light output over controls with CYP1A2 [2]: increased light output over controls | Light output over controls with CYP2C9 [3]: increased light output over controls | Time-dependence of light output on CYP2C9/substrate incubation [3, 12]: increased in a linear fashion for up to 60 minutes | CYP450 activity detected with the substrate compared to Sf9 cell membranes [1]: significant amounts of CYP450 activity was detected | Light output over time, one-step with CYP2C9 [4]: increasing to a maximum by about 30 minutes and declining thereafter | Conversion to luciferin by CYP2C9 [5]: confirmed

CC(=O)N1CCN(c2ccc(OCC3COC(Cn4ccnc4)(c4ccc(Cl)cc4Cl)O3)cc2)CC1 (stereo not drawn) [Ketoconazole, ketoconazole]
Inhibition of light output with H-Luc ([1]; substrate H-Luc, sulfaphenazole and ketoconazole 100 micromolar): Partial inhibition | Effect on activity against Luc BE [1, 11]: Inhibition

O=C(O)[C@H]1CSC(c2nc3ccc(OCc4ccccc4)cc3s2)=N1 [Luc BE, Luciferin 6′-benzyl ether]
Light output over controls with CYP2C9 [3]: increased significantly | CYP450 activity detected with the substrate compared to Sf9 cell membranes [1]: significant amounts of CYP450 activity was detected | Light output over controls with CYP3A4 ([6]; CYP450 incubation 60 minutes at 37° C., then luciferase): increased significantly | Time-dependence of light output on CYP3A4/substrate incubation [6, 12]: increased in a linear fashion for up to 60 minutes | Light output over controls with CYP2C8 [7]: increased significantly | Difference in light output to -CYP450 control, one-step with CYP3A4 [8]: modest

O=C(O)[C@H]1CSC(c2nc3ccc(OCCCl)cc3s2)=N1 [Luc CEE, Luciferin 6′-(2-chloroethyl)ether]
Light output over controls with CYP1A2 [2]: increased significantly | Light output over controls with CYP2C9 [3]: increased significantly | Light output over controls with CYP2C8 [7]: increased significantly | Light output over controls with CYP1A1 [9]: increased significantly | Conversion to luciferin by CYP1A1 [10]: confirmed

CCOc1ccc2nc(C3=N[C@@H](C(=O)O)CS3)sc2c1 [Luc EE, luciferin 6′ ethyl ether]
Light output over controls with CYP1A2 [2]: increased significantly | Light output over controls with CYP2C9 [3]: increased significantly | CYP450 activity detected with the substrate compared to Sf9 cell membranes [1]: significant amounts of CYP450 activity was detected | Light output over controls with CYP2C8 [7]: increased significantly | Light output over controls with CYP1A1 [9]: increased significantly

Nc1ccc(S(=O)(=O)Nc2ccnn2-c2ccccc2)cc1 [Sulfaphenazole, sulfaphenazole]
Inhibition of light output with H-Luc [1]: near complete inhibition
